# In publication PMC4549712, “Inhibition of human GLUT1 and GLUT5 by plant carbohydrate products; insights into transport specificity” (Scientific Reports, 2015):
# “Also recorded” adds a separate entry of the source.
# Assays:
# human GLUT5 = target: T1, human GLUT5 (Homo sapiens, UniProt P22732); experiment: entrance counter-flow transport assay, GLUT5-mediated fructose transport in proteoliposomes; type: biochemical; conditions: added at 20 mM
# T1 construct: Full length DNA was subcloned into pFastBac1 (Life Technologies) vector with a N-terminal hexahistidine tag; hexahistidine (thrombin-cleavable) (N, cleaved yes); made in house; host or cells: Sf21 insect cells (baculovirus, pFastBac1)
# T1 sequence (P22732 1-501): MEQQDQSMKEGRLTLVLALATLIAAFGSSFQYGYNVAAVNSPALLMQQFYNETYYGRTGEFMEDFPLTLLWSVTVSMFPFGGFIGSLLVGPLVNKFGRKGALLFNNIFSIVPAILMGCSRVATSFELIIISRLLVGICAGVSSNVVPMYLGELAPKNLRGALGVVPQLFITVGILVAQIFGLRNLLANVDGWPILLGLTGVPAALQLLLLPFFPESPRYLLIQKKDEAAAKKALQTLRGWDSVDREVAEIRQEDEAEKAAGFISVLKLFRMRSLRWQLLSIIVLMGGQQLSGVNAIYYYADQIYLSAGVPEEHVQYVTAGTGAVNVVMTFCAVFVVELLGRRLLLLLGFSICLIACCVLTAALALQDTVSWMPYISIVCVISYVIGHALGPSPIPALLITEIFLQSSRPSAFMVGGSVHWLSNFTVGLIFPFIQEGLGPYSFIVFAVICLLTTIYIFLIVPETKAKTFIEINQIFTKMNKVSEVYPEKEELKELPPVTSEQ
# Description: (§1) Human GLUT1 and GLUT5 were expressed recombinantly in insect cell culture. The purified proteins were reconstituted into proteoliposomes. To measure the inhibition of GLUT1 or GLUT5 transport activity we used entrance counter-flow transport assay.
# (§2) Proteoliposomes were generated according to the protocol from[30] with minor modifications. Liposomes were produced from a 95/5% (w/w) mix of soy phosphatidylcholine and cholesterol (Avanti Polar Lipids). Briefly, hexane-washed and vacuum-dried lipids were resuspended to 20 mg/ml in 100 mM KPi (pH 7.5), and then subjected to 11 freeze-and-thaw cycles in liquid nitrogen and room temperature water. The lipid mixture was extruded through a 0.1 μm polycarbonate filter. Prepared liposomes were destabilized with 4 mM Triton X-100 and mixed with purified protein in a 100:1 (w/w) ratio in 100 mM KPi (pH 7.5) 20% (v/v) glycerol, 200 mM (glucose or fructose). Detergent was removed by several additions of SM2 BioBeads (BioRad) and incubated overnight at 4 °C. After filtering out the BioBeads, proteoliposomes were diluted with 100 mM KPi (pH 7.5) 200 mM (glucose or fructose), and then collected by ultracentrifugation, at 200,000 × g and 4 °C, for 1 hour. The proteoliposomes pellet was resuspended in the above buffer so that O.D.600nm was ~30.
# To measure hexose transport, we utilized entrance counter-flow assay. Transport was performed in a volume of 100 μL of 100 mM KPi (pH 7.5) buffer containing radioactive ^14C-hexose (4 μM fructose or 5 μM glucose) with inhibitors added before initiation of transport. […] The reaction was started by the addition of 3 μL concentrated proteoliposomes to the above solution and incubated at room temperature; the transport was stopped after one minute by addition of ice-chilled quench buffer [100 mM KPi (pH 5.5) and 100 mM LiCl]. The solution was filtered through a 0.4 μm pore size cellulose nitrate membrane filter (Whatman), and the filter was washed three times with quench buffer. The membrane filter was placed into a vial filled with BioSafe II scintillation liquid (Research Products International Corp.), and radioactivity was quantified with LS 6500 scintillation counter (Beckman). […] Data is presented as relative activity normalized to radioactivity of no inhibitor added as 100% and empty proteoliposomes as 0%. Kinetic parameters were fitted by nonlinear algorithm plots using Prism (GraphPad Software).
# human GLUT1 = target: T2, human GLUT1 (Homo sapiens, UniProt P11166); experiment: entrance counter-flow transport assay, GLUT1-mediated glucose transport in proteoliposomes; type: biochemical; conditions: for inhibition of GLUT1 glucose transport activity: 20 mM
# T2 construct: Full length DNA was subcloned into pFastBac1 (Life Technologies) vector with a N-terminal hexahistidine tag; hexahistidine (thrombin-cleavable) (N, cleaved yes); made in house; host or cells: Sf21 insect cells (baculovirus, pFastBac1)
# T2 sequence (P11166 1-492): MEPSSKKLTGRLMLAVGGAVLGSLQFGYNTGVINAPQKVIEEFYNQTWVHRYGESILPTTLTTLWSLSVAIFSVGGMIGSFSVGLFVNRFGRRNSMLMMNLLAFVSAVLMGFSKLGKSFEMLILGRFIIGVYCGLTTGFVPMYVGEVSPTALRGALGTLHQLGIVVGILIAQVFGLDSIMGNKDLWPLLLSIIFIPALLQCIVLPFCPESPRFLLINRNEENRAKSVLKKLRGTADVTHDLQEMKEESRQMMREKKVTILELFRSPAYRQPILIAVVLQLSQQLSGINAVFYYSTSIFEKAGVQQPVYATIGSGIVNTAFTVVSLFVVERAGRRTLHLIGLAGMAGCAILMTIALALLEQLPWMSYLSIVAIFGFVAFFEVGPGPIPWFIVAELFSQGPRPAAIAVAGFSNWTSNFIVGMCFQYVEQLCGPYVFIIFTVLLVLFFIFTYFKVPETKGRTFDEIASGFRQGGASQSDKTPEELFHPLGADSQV
# Protocol: as §1, with “assay. In GLUT1 and GLUT5 proteoliposomes, substrate transport reached steady state after one minute incubation at room temperature.” for “assay.”
# as §2
# To measure hexose transport, we utilized entrance counter-flow assay. Transport was performed in a volume of 100 μL of 100 mM KPi (pH 7.5) buffer containing radioactive ^14C-hexose (4 μM fructose or 5 μM glucose) with inhibitors added before initiation of transport. Radioactive substrate uptake in GLUT1 and GLUT5 (wild-type or mutant) proteoliposomes was constant between 1 and 2 mins. The reaction was started by the addition of 3 μL concentrated proteoliposomes to the above solution and incubated at room temperature; the transport was stopped after one minute by addition of ice-chilled quench buffer [100 mM KPi (pH 5.5) and 100 mM LiCl]. The solution was filtered through a 0.4 μm pore size cellulose nitrate membrane filter (Whatman), and the filter was washed three times with quench buffer. The membrane filter was placed into a vial filled with BioSafe II scintillation liquid (Research Products International Corp.), and radioactivity was quantified with LS 6500 scintillation counter (Beckman). […] The transport assays were unaffected by 5% DMSO. Data is presented as relative activity normalized to radioactivity of no inhibitor added as 100% and empty proteoliposomes as 0%. Kinetic parameters were fitted by nonlinear algorithm plots using Prism (GraphPad Software).
# [1] = parameters: method as in PMID 22133440; conditions: cited from earlier work
# GLUT1 [2] = test system: GLUT1; parameters: method as in PMID 9286080; conditions: cited from earlier work
# GLUT5 [3] = test system: GLUT5; parameters: method as in PMID 9166863; conditions: cited from earlier work
# human GLUT4 = test system: human GLUT4; parameters: method as in PMID 1716731; conditions: cited from earlier work
# human GLUT2 = test system: human GLUT2; parameters: method as in PMID 1716731; conditions: cited from earlier work
# [4] = test system: glucose/H+ symporter GlcPSe; parameters: method as in PMID 24127585; conditions: cited from earlier work
# GLUT5 [5] = test system: GLUT5; parameters: method as in PMID 9166863; conditions: read-out: GLUT5 Km for fructose; cited from earlier work
# GLUT1 [6] = conditions: read-out: GLUT1 Km for glucose; cited from earlier work
# [7] = parameters: method as in PMID 22133440; conditions: cited from earlier work; remark: listed apart in the source
compound,measurement,setting,value
OC[C@H]1O[C@H](O[C@H]2[C@H](O)[C@@H](O)C(O)O[C@@H]2CO)[C@H](O)[C@@H](O)[C@@H]1O (mixture of isomers) [maltose],inhibition of GLUT5 fructose transport activity,human GLUT5,neither maltose nor maltohexaose (6 glucose units) inhibited GLUT5
same,GLUT1 transport activity (relative glucose transport),human GLUT1; 20 mM compound,~ 80%
O=c1c(O[C@@H]2O[C@H](CO)[C@@H](O)[C@H](O)[C@H]2O)c(-c2ccc(O)cc2)oc2cc(O)cc(O)c12 [astragalin],inhibition of GLUT5 fructose transport activity,human GLUT5,neither maltohexaose nor astragalin alone inhibit GLUT5
same,solubility in water,[1],insoluble in water
C=C1[C@@H](C)[C@H]2[C@H](Cc3ccccc3)NC(=O)[C@]23OC(=O)/C=C/[C@H](O)CCC[C@@H](C)C/C=C/[C@H]3[C@@H]1O [cytochalasin B],inhibition of GLUT1 activity,GLUT1 [2],inhibitors
same,inhibition of GLUT5,GLUT5 [3],not GLUT5
same,inhibition of human GLUT4,human GLUT4,inhibit
same,inhibition of human GLUT2,human GLUT2,inhibit
same,inhibition of bacterial glucose/H+ symporter GlcPSe,[4],inhibit
C=C[C@@]1(C)CC(=O)[C@]2(O)[C@@]3(C)[C@@H](O)CCC(C)(C)[C@@H]3[C@H](O)[C@H](OC(C)=O)[C@@]2(C)O1 [forskolin],inhibition of GLUT1 activity,GLUT1 [2],inhibitors
same,inhibition of GLUT5,GLUT5 [3],not GLUT5
same,inhibition of human GLUT4,human GLUT4,inhibit
same,inhibition of human GLUT2,human GLUT2,inhibit
same,inhibition of bacterial glucose/H+ symporter GlcPSe,[4],inhibit
O=C(CO)[C@@H](O)[C@H](O)[C@H](O)CO [fructose],Km,GLUT5 [5],~10 mM
OC[C@H]1OC(O)[C@H](O)[C@@H](O)[C@@H]1O (some centres unmarked) [glucose],Km,GLUT1 [6],~3 mM
Astragalin-6-glucoside [Ast6G],redox scavenging properties compared to astragalin,[7],increased redox scavenging properties
same,inhibition of GLUT1 glucose transport activity,human GLUT1,not inhibited; also recorded: did not inhibit
maltohexaose,inhibition of GLUT5 fructose transport activity,human GLUT5,neither maltose nor maltohexaose (6 glucose units) inhibited GLUT5; also recorded: neither maltohexaose nor astragalin alone inhibit GLUT5
same,inhibition of GLUT1 glucose transport activity,human GLUT1,not inhibited
